# Reference: US11104965B2, “Methods for the diagnosis and treatment of inflammatory bowel disease” (priority 2013, dated 2021)
# Legend:
# A. parvulum = A. parvulum colonization level in stool of mono-associated II10-/- mice by real-time qPCR; format: in vivo, Atopobium parvulum; settings: 6 weeks, P=0.0001, FIG. 12B
# Description: Statistical significance was assessed using a Mann-Whitney U-test.
# (§1) To test the causative role of H2S-producing microbes in colitis, we assessed whether an H2S scavenger (bismuth) could alleviate Atopobium-induced colitis in II10^−/− mice. […] It should be noted that the intestines of IBD patients also display a similar increased number of lymphoid follicles^15. […] Increased GALT foci in Atopobium-associated mice could lead to an aberrant expression of lymphoid adhesion molecules and unwanted T cell activation towards commensal microbes. To assess the role of these commensal microbes in colitis development, germ-free mice were mono-associated with A. parvulum and kept under gnotobiotic conditions.
# To investigate involvement of complex biota and H2S in the development of colitis, we performed two subsequent experiments using 129/SvEv II-10^−/− mice. […] Mice were euthanized after 6 weeks of mono-association. […] Mice were fed with this diet starting 1 week before the colonization with A. parvulum. […] Mice were euthanized after 6 weeks of weekly infection with A. parvulum. […] Mice were fed with this diet starting 1 week before the colonization with A. parvulum.
# [1] = system: Atopobium-induced colitis in II10−/− mice; test: Atopobium-induced colitis in II10-/- mice under SPF conditions, treated or not with bismuth (colonoscopy, blinded histological inflammation score); format: in vivo, mouse; settings: A. parvulum-associated II10-/- mice, 6 weeks
# Source text: as §1
# Colonic mucosal lavages and/or mucosal biopsies were collected from 157 pediatric subjects (84 Crohn's Disease, 20 Ulcerative Colitis, and 53 controls). […] Reads were quality filtered and QIIME ^23 was used to assign reads into operational taxonomic units (OTUs) against the Greengenes reference set. […] The generated raw data was processed and analyzed by MaxQuant against the decoy Uniport-human database with the protein-group file imported into Persus for statistical analysis. […] The transcript levels of TST, SQRDL and COX4-1 were quantified by RT-qPCR. […] Mouse colonoscopies were performed and histological inflammation was blindly scored as previously described ^25. Mice mucosal cytokines (Cxcl1, II12p40, II1β and II17a) were quantified by RT-qPCR. […]
# [2] = system: GALT foci of II10−/− mice; test: Number of GALT foci in II10-/- mice associated with A. parvulum, SPF conditions; format: in vivo, mouse; settings: Atopobium-associated II10-/- mice under SPF conditions; FIG. 4C
# Description: (§2) Statistical significance was assessed using a Kruskal-Wallis test with a Dunn's post hoc test.
# as §1
# (§3) To investigate involvement of complex biota and H2S in the development of colitis, we performed two subsequent experiments using 129/SvEv II-10^−/− mice. […] Mice were euthanized after 6 weeks of mono-association. […] Mice were fed with this diet starting 1 week before the colonization with A. parvulum. […] Mice were euthanized after 6 weeks of weekly infection with A. parvulum. […]
# (§4) All animal protocols were approved by the Institutional Animal Care and Use Committee of the University of North Carolina at Chapel Hill. […] Histological images were acquired using a DP71 camera and DP Controller 3.1.1.276 (Olympus), and intestinal inflammation was scored as previously described^12. […]
# [3] = system: gut microbiota of II10−/− mice; test: Gut microbiota composition of SPF and Atopobium-associated II10-/- mice, treated or not with bismuth (PCA, Table 6); format: in vivo, mouse
# Source text: To assess the role of these commensal microbes in colitis development, germ-free mice were mono-associated with A. parvulum and kept under gnotobiotic conditions. […] FIG. 12B). […] GF+bismuth (III) subsalicylate (n=10); 3: […] A. parvulum+bismuth (III) subsalicylate (n=11). Mice were euthanized after 6 weeks of mono-association. […] Mice were fed with this diet starting 1 week before the colonization with A. parvulum. […] SPF+bismuth (III) subsalicylate (n=8); 3: […] A. parvulum+bismuth (III) subsalicylate (n=8). Mice were euthanized after 6 weeks of weekly infection with A. parvulum. […] Mice were fed with this diet starting 1 week before the colonization with A. parvulum.
# [4] = system: GALT foci of II10−/− mice; test: Number of GALT foci in II10-/- mice mono-associated with A. parvulum, gnotobiotic conditions; format: in vivo, mouse; settings: germ-free II10-/- mice mono-associated with A. parvulum, FIG. 4C
# Description: as §2, §1, §3, §4
structure (smiles),measurement,setting,value
"O=C([O-])c1ccccc1[O-].[Bi+3].[OH-] [bismuth, Bismuth (III) subsalicylate]",A. parvulum colonization level (16S rDNA gene copies per mg of stool),A. parvulum,reduced colonization level
same,inflammatory score,"[1]; bismuth 7 g/kg in chow, P=0.007, FIG. 4B",decrease inflammatory score
same,colitis as evidenced by colonoscopy visualization,"[1]; bismuth (III) subsalicylate 7 g/kg in chow, FIG. 4A",prevented colitis
same,GALT formation (number of GALT foci),[2],did not prevent GALT formation
same,"microbiota of Atopobium-associated mice, abundance of butyrate-producers","[3]; Atopobium-associated II10-/- mice, SPF",restores the microbiota of these mice toward a healthier community
same,microbiota composition,"[3]; SPF and Atopobium-associated II10-/- mice, Table 6",altered the microbiota composition
same,GALT neogenesis,[4],prevented GALT neogenesis
